Reference: patent publication US20230389548A1, “MIXTURES OF PYRIMIDINES AS HERBICIDAL COMPOSITIONS” (SYNGENTA CROP PROTECTION AG, priority 2020, published 2023)

What was measured:
Experiment in all cases: Post-emergence glasshouse spray test, visual percentage phytotoxicity after 13 days
Type in all cases: in vivo
[1] = system: Abutilon threophrasti (ABUTH); details: for ABUTH percentage phytotoxicity: B1; for Observed phytotoxicity ABUTH: B2.1.7
Method: (§1) Seeds of Setaria faberi (SETFA), Echinochloa crus-galli (ECHCG), Digitaria sanguinalis (DIGSA), Lolium perenne (LOLPE), Alopecurus myosuroides (ALOMY), Chenopodium album (CHEAL), Ipomoea hederacea (IPOHE), Stellaria media (STEME), Abutilon threophrasti (ABUTH), Amaranthus retroflexus (AMARE) were sown in standard sterilised soil in pots. After cultivation for 8 days under controlled conditions in a glasshouse (at 24/19° C., day/night; 16 hours light; no humidity control), the plants were sprayed at 500 l/Ha with an aqueous spray solution derived from the formulation of the technical active ingredients in a small amount of acetone and a solvent and emulsifier mixture referred to as IF50 (11.12% Emulsogen EL360™+44.44% N-methylpyrrolidone+44.44% Dowanol DPM glycol ether), to create a 50 g/l solution which was then diluted using 0.2% Genapol XO80 (CAS Number: 9043-30-5) as diluent to give the desired final dose of test compound.
(§2) Where active ingredients were applied as mixtures, aqueous spray solutions were prepared as above, containing both active ingredients.
(§3) The test plants were then grown under controlled conditions in a glasshouse (at 24/18° C., day/night; 15 hours light; 50% humidity) and watered twice daily. After 13 days, the test was evaluated visually for percentage phytotoxicity to the plants (where 100=total damage to plant; 0=no damage to plant; and NC=not captured) when compared to control untreated plants. Two to four replicates were applied for each treatment in a randomised block test design.
(§4) 22., E=X+Y−(X*Y/100), where
(§5) X=average percent phytotoxicity of herbicide A when applied at a certain rate Y=average percent phytotoxicity using herbicide B when applied at a certain rate E=the expected effect of the mixture of herbicides A and B as calculated from the Colby formula.

[2] = system: Amaranthus retroflexus (AMARE); details: for AMARE percentage phytotoxicity: B1
Method: as §1, §2, §3, §4, §5

[3] = system: Chenopodium album (CHEAL); details: for CHEAL percentage phytotoxicity: B1; for Observed phytotoxicity CHEAL: B2.1.6
Method: as §1, §2, §3, §4, §5

[4] = system: Digitaria sanguinalis (DIGSA); details: for DIGSA percentage phytotoxicity: B1; for Observed phytotoxicity DIGSA: B2.6.2
Method: as §1, §2, §3, §4, §5

[5] = system: Echinochloa crus-galli (ECHCG); details: for ECHCG percentage phytotoxicity: B1; for Observed phytotoxicity ECHCG: B2.1.2
Method: as §1, §2, §3, §4, §5

[6] = system: Ipomoea hederacea (IPOHE); details: for IPOHE percentage phytotoxicity: B1
Method: as §1, §2, §3, §4, §5

Lolium perenne (LOLPE) = details: for LOLPE percentage phytotoxicity: B1
Method: as §1, §2, §3, §4, §5

Setaria faberi (SETFA) = details: for SETFA percentage phytotoxicity: B1
Method: as §1, §2, §3, §4, §5

Stellaria media (STEME) = details: for STEME percentage phytotoxicity: B1
Method: as §1, §2, §3, §4, §5

[7] = system: Alopecurus myosuroides (ALOMY); details: B1
Method: as §1, §2, §3, §4, §5

CN1C[C@H](c2cccc(C(F)(F)F)c2)[C@@H](C(=O)Nc2ccccc2F)C1=O [B-III]
ABUTH percentage phytotoxicity ([1]; 3.125 g/ha post-emergence): 10%
ABUTH percentage phytotoxicity ([1]; 6.25 g/ha post-emergence): 4%
ABUTH percentage phytotoxicity ([1]; 12.5 g/ha post-emergence): 3%
ABUTH percentage phytotoxicity ([1]; 25 g/ha post-emergence): 19%
ABUTH percentage phytotoxicity ([1]; 50 g/ha post-emergence): 18%
Observed phytotoxicity ABUTH ([1]; 6.25 g/ha post-emergence): 4%
Observed phytotoxicity ABUTH ([1]; 12.5 g/ha post-emergence): 3%
Observed phytotoxicity ABUTH ([1]; 25 g/ha post-emergence): 19%
Observed phytotoxicity ABUTH ([1]; 50 g/ha post-emergence): 18%
AMARE percentage phytotoxicity ([2]; 3.125 g/ha post-emergence): 4%
AMARE percentage phytotoxicity ([2]; 6.25 g/ha post-emergence): 6%
AMARE percentage phytotoxicity ([2]; 12.5 g/ha post-emergence): 10%
AMARE percentage phytotoxicity ([2]; 25 g/ha post-emergence): 21%
AMARE percentage phytotoxicity ([2]; 50 g/ha post-emergence): 31%
Observed phytotoxicity AMARE ([2]; B2.1.5, 6.25 g/ha post-emergence): 6%
CHEAL percentage phytotoxicity ([3]; 3.125 g/ha post-emergence): 6%
CHEAL percentage phytotoxicity ([3]; 6.25 g/ha post-emergence): 10%
CHEAL percentage phytotoxicity ([3]; 12.5 g/ha post-emergence): 14%
CHEAL percentage phytotoxicity ([3]; 25 g/ha post-emergence): 44%
CHEAL percentage phytotoxicity ([3]; 50 g/ha post-emergence): 56%
Observed phytotoxicity CHEAL ([3]; 6.25 g/ha post-emergence): 10%
Observed phytotoxicity CHEAL ([3]; 12.5 g/ha post-emergence): 14%
DIGSA percentage phytotoxicity ([4]; 3.125 g/ha post-emergence): 72%
DIGSA percentage phytotoxicity ([4]; 6.25 g/ha post-emergence): 74%
DIGSA percentage phytotoxicity ([4]; 12.5 g/ha post-emergence): 78%
DIGSA percentage phytotoxicity ([4]; 25 g/ha post-emergence): 79%
DIGSA percentage phytotoxicity ([4]; 50 g/ha post-emergence): 80%
ECHCG percentage phytotoxicity ([5]; 3.125 g/ha post-emergence): 70%
ECHCG percentage phytotoxicity ([5]; 6.25 g/ha post-emergence): 70%
ECHCG percentage phytotoxicity ([5]; 12.5 g/ha post-emergence): 73%
ECHCG percentage phytotoxicity ([5]; 25 g/ha post-emergence): 73%
ECHCG percentage phytotoxicity ([5]; 50 g/ha post-emergence): 75%
Observed phytotoxicity ECHCG ([5]; 12.5 g/ha post-emergence): 73%
Observed phytotoxicity ECHCG ([5]; 50 g/ha post-emergence): 75%
IPOHE percentage phytotoxicity ([6]; 3.125 g/ha post-emergence): 9%
IPOHE percentage phytotoxicity ([6]; 6.25 g/ha post-emergence): 11%
IPOHE percentage phytotoxicity ([6]; 12.5 g/ha post-emergence): 15%
IPOHE percentage phytotoxicity ([6]; 25 g/ha post-emergence): 24%
IPOHE percentage phytotoxicity ([6]; 50 g/ha post-emergence): 28%
LOLPE percentage phytotoxicity (Lolium perenne (LOLPE); 3.125 g/ha post-emergence): 30%
LOLPE percentage phytotoxicity (Lolium perenne (LOLPE); 6.25 g/ha post-emergence): 43%
LOLPE percentage phytotoxicity (Lolium perenne (LOLPE); 12.5 g/ha post-emergence): 55%
LOLPE percentage phytotoxicity (Lolium perenne (LOLPE); 25 g/ha post-emergence): 70%
LOLPE percentage phytotoxicity (Lolium perenne (LOLPE); 50 g/ha post-emergence): 75%
Observed phytotoxicity LOLPE (Lolium perenne (LOLPE); B2.1.1, 6.25 g/ha post-emergence): 43%
Observed phytotoxicity LOLPE (Lolium perenne (LOLPE); B2.1.1, 12.5 g/ha post-emergence): 55%
SETFA percentage phytotoxicity (Setaria faberi (SETFA); 3.125 g/ha post-emergence): 66%
SETFA percentage phytotoxicity (Setaria faberi (SETFA); 6.25 g/ha post-emergence): 68%
SETFA percentage phytotoxicity (Setaria faberi (SETFA); 12.5 g/ha post-emergence): 70%
SETFA percentage phytotoxicity (Setaria faberi (SETFA); 25 g/ha post-emergence): 74%
SETFA percentage phytotoxicity (Setaria faberi (SETFA); 50 g/ha post-emergence): 73%
Observed phytotoxicity SETFA (Setaria faberi (SETFA); B2.1.3, 25 g/ha post-emergence): 74%
STEME percentage phytotoxicity (Stellaria media (STEME); 3.125 g/ha post-emergence): 13%
STEME percentage phytotoxicity (Stellaria media (STEME); 6.25 g/ha post-emergence): 21%
STEME percentage phytotoxicity (Stellaria media (STEME); 12.5 g/ha post-emergence): 14%
STEME percentage phytotoxicity (Stellaria media (STEME); 25 g/ha post-emergence): 46%
STEME percentage phytotoxicity (Stellaria media (STEME); 50 g/ha post-emergence): 71%
Observed phytotoxicity STEME (Stellaria media (STEME); B2.1.4, 6.25 g/ha post-emergence): 21%
Observed phytotoxicity STEME (Stellaria media (STEME); B2.1.4, 12.5 g/ha post-emergence): 14%

Nc1c(F)c(-c2ccc3cc[nH]c3c2F)nc(C(=O)O)c1Cl [B-VI]
ABUTH percentage phytotoxicity ([1]; 0.625 g/ha post-emergence): 38%
ABUTH percentage phytotoxicity ([1]; 1.25 g/ha post-emergence): 55%
ABUTH percentage phytotoxicity ([1]; 2.5 g/ha post-emergence): 73%
ABUTH percentage phytotoxicity ([1]; 5 g/ha post-emergence): 78%
ABUTH percentage phytotoxicity ([1]; 10 g/ha post-emergence): 78%
ALOMY percentage phytotoxicity ([7]; 0.625 g/ha post-emergence): 0%
ALOMY percentage phytotoxicity ([7]; 1.25 g/ha post-emergence): 0%
ALOMY percentage phytotoxicity ([7]; 2.5 g/ha post-emergence): 0%
ALOMY percentage phytotoxicity ([7]; 5 g/ha post-emergence): 33%
ALOMY percentage phytotoxicity ([7]; 10 g/ha post-emergence): 30%
AMARE percentage phytotoxicity ([2]; 0.625 g/ha post-emergence): 58%
AMARE percentage phytotoxicity ([2]; 1.25 g/ha post-emergence): 65%
AMARE percentage phytotoxicity ([2]; 2.5 g/ha post-emergence): 73%
AMARE percentage phytotoxicity ([2]; 5 g/ha post-emergence): 95%
AMARE percentage phytotoxicity ([2]; 10 g/ha post-emergence): 90%
CHEAL percentage phytotoxicity ([3]; 0.625 g/ha post-emergence): 58%
CHEAL percentage phytotoxicity ([3]; 1.25 g/ha post-emergence): 73%
CHEAL percentage phytotoxicity ([3]; 2.5 g/ha post-emergence): 75%
CHEAL percentage phytotoxicity ([3]; 5 g/ha post-emergence): 94%
CHEAL percentage phytotoxicity ([3]; 10 g/ha post-emergence): 84%
DIGSA percentage phytotoxicity ([4]; 0.625 g/ha post-emergence): 0%
DIGSA percentage phytotoxicity ([4]; 1.25 g/ha post-emergence): 0%
DIGSA percentage phytotoxicity ([4]; 2.5 g/ha post-emergence): 0%
DIGSA percentage phytotoxicity ([4]; 5 g/ha post-emergence): 8%
DIGSA percentage phytotoxicity ([4]; 10 g/ha post-emergence): 43%
Observed phytotoxicity DIGSA ([4]; 0.625 g/ha post-emergence): 0%
Observed phytotoxicity DIGSA ([4]; 1.25 g/ha post-emergence): 0%
Observed phytotoxicity DIGSA ([4]; 5 g/ha post-emergence): 8%
IPOHE percentage phytotoxicity ([6]; 0.625 g/ha post-emergence): 13%
IPOHE percentage phytotoxicity ([6]; 1.25 g/ha post-emergence): 35%
IPOHE percentage phytotoxicity ([6]; 2.5 g/ha post-emergence): 38%
IPOHE percentage phytotoxicity ([6]; 5 g/ha post-emergence): 48%
IPOHE percentage phytotoxicity ([6]; 10 g/ha post-emergence): 50%
Observed phytotoxicity IPOHE ([6]; B2.6.4, 2.5 g/ha post-emergence): 38%
LOLPE percentage phytotoxicity (Lolium perenne (LOLPE); 0.625 g/ha post-emergence): 0%
LOLPE percentage phytotoxicity (Lolium perenne (LOLPE); 1.25 g/ha post-emergence): 0%
LOLPE percentage phytotoxicity (Lolium perenne (LOLPE); 2.5 g/ha post-emergence): 0%
LOLPE percentage phytotoxicity (Lolium perenne (LOLPE); 5 g/ha post-emergence): 8%
LOLPE percentage phytotoxicity (Lolium perenne (LOLPE); 10 g/ha post-emergence): 8%
Observed phytotoxicity LOLPE (Lolium perenne (LOLPE); B2.6.3, 5 g/ha post-emergence): 8%
SETFA percentage phytotoxicity (Setaria faberi (SETFA); 0.625 g/ha post-emergence): 0%
SETFA percentage phytotoxicity (Setaria faberi (SETFA); 1.25 g/ha post-emergence): 0%
SETFA percentage phytotoxicity (Setaria faberi (SETFA); 2.5 g/ha post-emergence): 0%
SETFA percentage phytotoxicity (Setaria faberi (SETFA); 5 g/ha post-emergence): 48%
SETFA percentage phytotoxicity (Setaria faberi (SETFA); 10 g/ha post-emergence): 70%
Observed phytotoxicity SETFA (Setaria faberi (SETFA); B2.6.1, 0.625 g/ha post-emergence): 0%
Observed phytotoxicity SETFA (Setaria faberi (SETFA); B2.6.1, 1.25 g/ha post-emergence): 0%
STEME percentage phytotoxicity (Stellaria media (STEME); 0.625 g/ha post-emergence): 78%
STEME percentage phytotoxicity (Stellaria media (STEME); 1.25 g/ha post-emergence): 50%
STEME percentage phytotoxicity (Stellaria media (STEME); 2.5 g/ha post-emergence): 65%
STEME percentage phytotoxicity (Stellaria media (STEME); 5 g/ha post-emergence): 98%
STEME percentage phytotoxicity (Stellaria media (STEME); 10 g/ha post-emergence): 90%
Observed phytotoxicity STEME (Stellaria media (STEME); B2.6.5, 1.25 g/ha post-emergence): 50%
